In brackets after ≈: the same amount, converted by molar mass. Records with an inconclusive call do not appear.
test system: PBS pH 7.4 solubility, LC-UV/MS, 1 h shake; experiment: qHTS Assay for Agonists of the Relaxin Receptor RXFP1: PBS Solubility; settings: stronger effect = higher value
Text: The relaxin hormone is involved in the variety of biological functions in normal tissues and diseases. The role of relaxin is well-established in female reproduction and parturition, mammary gland and endometrial development, maintenance of myometrial quiescence during pregnancy. Relaxin signaling through its G protein-coupled receptor (GPCR) RXFP1 results in ECM remodeling through regulation of collagen deposition, cell invasiveness, proliferation and overall tissue homeostasis. […] Recombinant human relaxin (rhRlx) is currently being tested in clinical trials as a protective agent in congestive heart failure, in treating severe preeclampsia, and as an anti-fibrotic agent in systemic sclerosis. The probe and analogs were tested to assess their PBS solubility in this assay. NIH Chemical Genomics Center [NCGC] NIH Molecular Libraries Probe Production Centers Network [MLPCN] MLPCN Grant: R03 MH085705 Assay Submitter (PI): Alexander Agoulnik
1. 8ul of reference and test compound stock solution were added to 392ul 100mM phosphate buffer (pH 7.4) 2. Sample tubes were shaken for 1 hr (1000 rpm) at room temperature 3. Samples were centrifuged (10 min at 12000 rpm) to precipitate un-dissolved particles 4. Supernatants were transferred to new tubes 5. Concentration of the supernatant was determined by LC-UV or LC-MS/MS

| Structure (SMILES) | solubility |
| --- | --- |
| CCCCOc1ccccc1C(=O)Nc1ccccc1C(=O)Nc1cccc(S(=O)(=O)C(F)(F)F)c1 | 5.3 µM (≈ 2.76 µg/mL) |
| CCOc1ccccc1C(=O)Nc1ccccc1C(=O)Nc1cccc(S(=O)(=O)C(F)(F)F)c1 | 1.1 µM (≈ 0.542 µg/mL) |
| CC(C)Oc1ccccc1C(=O)Nc1ccccc1C(=O)Nc1cccc(S(=O)(=O)C(F)(F)F)c1 | 7 µM (≈ 3.55 µg/mL) |
| COc1ccccc1C(=O)Nc1ccccc1C(=O)Nc1cccc(SC(F)(F)F)c1 | 2.9 µM (≈ 1.29 µg/mL) |
| CCOc1ccccc1C(=O)Nc1ccccc1C(=O)Nc1cccc(C(F)(F)F)c1 | 1.7 µM (≈ 0.728 µg/mL) |

From PubChem BioAssay AID602287 (National Center for Advancing Translational Sciences (NCATS), 2012)
